Tests used:
Assay type in all cases: in vivo, human
[1] = system: patients 65 years of age and older with major depression; experiment: Hamilton Depression Rating Scale (HDRS-17 / HDRS-21) in 8-week double-blind comparison of paroxetine and mirtazapine
Excerpt: Hamilton Depression Rating Scale (HDRS; 17 and 21 item versions of a structured interview) (Hamilton, M., J. Neurol. Neurosurg. Psychiatr. 23:56-62, 1960; Hamilton, M., Br. J. Soc. Clin. Psychol. 6:278-296, 1967). […] In other words, a lower rating in the HDRS scale signifies less depression. In contrast, HDRS remitters, which are those patients showing the least depression, are defined as subjects who have an HDRS-17 score of less than 7 at a post-baseline visit.
(§1) All statistical analyses were performed using the SAS software package (available from SAS Institute). For clinical measures of depression (HDRS-21, HDRS-17, GDS, and CGI), analyses of covariance were performed with baseline values as the covariate, and apoE genotype (ε4 allele carrier vs. non-carrier) and medication (mirtazapine, paroxetine) as the predictors. For remitter and responder analyses of clinical measures of depression, Cochran-Mantel-Haenszel statistics were used. For comparison of medication and genotype groups on baseline demographic measures, two-way analyses of variance were used.

[2] = system: patients 65 years of age and older with major depression; experiment: Geriatric Depression Scale (GDS) in 8-week double-blind comparison
Method: Geriatric Depression Scale (GDS) (Yesavage, J. A. et al., J. Psychiatr. Res. 17:37-49, 1983), a self-rating scale developed specifically for rating depression in the elderly. In the GDS, a lower rating signifies less depression. GDS 50% responders are defined as subjects with a decrease on a post-baseline assessment of at least 50% as compared to baseline.
as §1

[3] = system: patients 65 years of age and older with major depression; experiment: Clinical Global Impression Scale (CGI) in 8-week double-blind comparison; details: day 14
Excerpt: Clinical Global Impression Scale (CGI) (Guy, W., ECDEU Assessment Manual for Psychopharmacology, DHEW Publication No. (ADM) 76-338, rev. 1976). The CGI scale is a global 7-point rating of the severity of the illness taking into account the preceding week (CGI-Severity) and a global 7-point rating of the clinical status of the subject since baseline (CGI-Change). A responder is defined as being “Much Improved” or “Very Much Improved” —having a CGI score of at least 2 according to CGI-Change. Thus, a higher CGI-Severity score corresponds to more severe depression whereas a higher CGI-Change score corresponds to lessened depression, or an improvement in alleviating the symptoms of depression.
as §1

[4] = day 14, Caucasian subjects, p=0.006

| Compound | HDRS-17 scores, mirtazapine-treated compared with paroxetine-treated patients ([1]; day 7, full cohort) | HDRS scores, ε4 carriers compared with noncarriers ([1]; day 14, Caucasian subjects) | mean HDRS-17 scores, mirtazapine compared with paroxetine [1, 4] | mean HDRS-21 scores, mirtazapine compared with paroxetine [1, 4] | HDRS-17 scores, mirtazapine-treated compared with paroxetine-treated patients ([1]; day 14, full cohort) | HDRS-21 scores, mirtazapine-treated compared with paroxetine-treated patients ([1]; day 14, full cohort) | HDRS-17 50% responders, ε4 carriers compared with non-ε4 carriers ([1]; day 14, full cohort, p=0.049) | GDS scores, ε4 carriers compared with noncarriers ([2]; day 14, Caucasian subjects) | GDS scores, effect of ε4 allele ([2]; day 14, full cohort) | CGI scores, ε4 carriers compared with noncarriers ([3]; Caucasian subjects) | CGI scores, mirtazapine treated compared with paroxetine treated subjects ([3]; Caucasian subjects, p=0.037) | CGI scores, mirtazapine-treated compared with paroxetine-treated patients ([3]; full cohort) | 50% reduction in GDS score, ε4 carriers compared with noncarriers ([2]; day 28, full cohort) |
| --- | --- | --- | --- | --- | --- | --- | --- | --- | --- | --- | --- | --- | --- |
| CN1CCN2c3ncccc3Cc3ccccc3C2C1 (stereo not shown) [mirtazapine, 1,2,3,4,10,14b-hexahydro-2-methylpyrazino[2,1-a]pyrido[2,3-c]benzazepine] | significantly greater improvement | greater improvement | significantly lower | significantly lower | Significantly greater improvement | Significantly greater improvement | significantly more | significantly lower | large decrease in GDS scores | significantly better | significantly better | Significantly greater improvement |  |
| Fc1ccc([C@@H]2CCNC[C@H]2COc2ccc3c(c2)OCO3)cc1 [paroxetine] |  | lees improvement |  |  |  |  |  |  | no significant difference | no differences |  |  | no effect of apoE genotype |

Source: patent US6399310B1, “Methods for improving the therapeutic response of humans having major depression and carrying the gene for apolipoprotein E4” (Akzo Nobel N.V., priority 2001, dated 2002)
